# Experiments:
# POAAN = assay: greenhouse test, pre-emergence treatment; type: in vivo, Poa annua
# From the text: (§1) The culture containers used were plastic pots containing loamy sand with approximately 3.0% of humus as substrate. The seeds of the test plants were sown separately for each species.
# (§2) For the pre-emergence treatment, the active compounds, suspended or emulsified in water, were applied directly after sowing by means of finely distributing nozzles. The containers were irrigated gently to promote germination and growth and subsequently covered with transparent plastic hoods until the plants had rooted. This cover caused uniform germination of the test plants unless this was adversely affected by the active compounds.
# (§3) Depending on the species, the plants were kept at 10-25° C. and 20-35° C., respectively. The test period extended over 2 to 4 weeks. During this time, the plants were tended and their response to the individual treatments was evaluated.
# (§4) Evaluation was carried out using a scale from 0 to 100. 100 means no emergence of the plants, or complete destruction of at least the above-ground parts, and 0 means no damage or normal course of growth. Good herbicidal activity is given at values of at least 70, and very good herbicidal activity is given at values of at least 85.
# (§5) The respective stated components A and B, and if appropriate, C were formulated as a 5% by weight or 10% by weight strength emulsion concentrate or a commercially available formulation of component B was used and, with addition of the amount of solvent system, introduced into the spray liquor used for applying the active compound. In the examples, the solvent used was water.
# (§6) The test period extended over 20 or 21 days. During this time, the plants were tended, and their reactions to the treatment with active compound was monitored.
# (§7) What was evaluated was the damage by the chemical compositions using a scale of from 0 to 100%, in comparison to the untreated control plants. 0 means no damage, and 100 means complete destruction of the plants.
# (§8) In the examples below, using the method of S. R. Colby (1967) “Calculating synergistic and antagonistic responses of herbicide combinations”, Weeds 15, p. 22 ff., the value E, which is expected if the activity of the individual active compounds is only additive, was calculated.
# (§9) where X=percent activity using active compound A at an application rate a; Y=percent activity using active compound B at an application rate b; E=expected activity (in %) by A+B at application rates a+b.
# (§10) If the value found in experiments is higher than the value E calculated according to Colby, a synergistic effect is present.
# LOLMU [1] = assay: greenhouse test, post-emergence treatment; type: in vivo, Lolium multiflorum; settings: Use Example 17
# Experimental: as §1
# (§11) For the post-emergence treatment, the test plants were grown to a plant height of from 3 to 15 cm, depending on the plant habit, and only then treated with the active compounds which had been suspended or emulsified in water. To this end, the test plants were either sown directly and grown in the same containers, or they were first grown separately as seedlings and transplanted into the test containers a few days prior to treatment.
# as §3, §4, §5, §6, §7, §8, §9, §10
# STEME = assay: greenhouse test, pre-emergence treatment; type: in vivo, Stellaria media; settings: Use Example 2
# From the text: as §1, §2, §3, §4, §5, §6, §7, §8, §9, §10
# DIGSA = assay: greenhouse test, pre-emergence treatment; type: in vivo, Digitaria sanguinalis; settings: for Herbicidal action in % after 21 days against DIGSA: Use Example 9
# From the text: as §1, §2, §3, §4, §5, §6, §7, §8, §9, §10
# PANDI = assay: greenhouse test, pre-emergence treatment; type: in vivo, Panicum dichotomiflorum; settings: 62.5 g/ha a.s., Use Example 3
# From the text: as §1, §2, §3
# (§12) Evaluation was carried out using a scale from 0 to 100. 100 means no emergence of the plants, or complete destruction of at least the above-ground parts, and 0 means no damage or normal course of growth. Good herbicidal activity is given at values of at least 70, and very good herbicidal activity is given at values of at least 85. […]
# as §6
# (§13) What was evaluated was the damage by the chemical compositions using a scale of from 0 to 100%, in comparison to the untreated control plants. […]
# (§14) In the examples below, using the method of S. R. Colby (1967) “Calculating synergistic and antagonistic responses of herbicide combinations”, Weeds 15, p. 22 ff., the value E, which is expected if the activity of the individual active compounds is only additive, was calculated. […]
# as §10
# LOLMU [2] = assay: greenhouse test, pre-emergence treatment; type: in vivo, Lolium multiflorum
# From the text: as §1, §2, §3, §4, §5, §6, §7, §8, §9, §10
# MATIN = assay: greenhouse test, pre-emergence treatment; type: in vivo, Matricaria inodora; settings: Use Example 2
# From the text: as §1, §2, §3, §4, §5, §6, §7, §8, §9, §10
# ALOMY = assay: greenhouse test, post-emergence treatment; type: in vivo, Alopecurus myosuroides; settings: Use Example 17
# Experimental: as §1, §11, §3, §4, §5, §6, §7, §8, §9, §10
# SETVI = assay: greenhouse test, post-emergence treatment; type: in vivo, Setaria viridis
# Experimental: as §1, §11, §3, §4, §5, §6, §7, §8, §9, §10
# PHACA = assay: greenhouse test, pre-emergence treatment; type: in vivo, Phalaris canariensis
# From the text: as §1, §2, §3, §4, §5, §6, §7, §8, §9, §10
# AVEFA = assay: greenhouse test, pre-emergence treatment; type: in vivo, Avena fatua; settings: Use Example 6
# From the text: as §1, §2, §3, §12, §6, §13, §14, §10
compound,measurement,setting,value
"CN1C(=O)C(C)(Cc2ccccc2)N(C)C(=O)C1=Cc1ccccc1C#N (stereo not drawn) [Example 20, 2-[5-Benzyl-1,4,5-trimethyl-3,6-dioxopiperazin-2-ylidenemethyl]benzo-nitrile]",Herbicidal action in % after 20 days against POAAN,"POAAN; 125 g/ha a.s., Use Example 7",60%
same,Herbicidal action in % after 20 days against POAAN,"POAAN; 125 g/ha a.s., Use Example 15",60%
same,Herbicidal action in % after 20 days against POAAN,"POAAN; 250 g/ha a.s., Use Example 6",85%
same,Herbicidal action in % after 20 days against POAAN,"POAAN; 250 g/ha a.s., Use Example 7",85%
same,Herbicidal action in % after 20 days against POAAN,"POAAN; 250 g/ha a.s., Use Example 15",85%
same,Herbicidal action in % after 20 days against POAAN,"POAAN; 500 g/ha a.s., Use Example 6",95%
same,Herbicidal action in % after 20 days against LOLMU,LOLMU [1]; 125 g/ha a.s.,15%
same,Herbicidal action in % after 20 days against LOLMU,LOLMU [1]; 250 g/ha a.s.,35%
same,Herbicidal action in % after 20 days against STEME,STEME; 62.5 g/ha a.s.,0%
same,Herbicidal action in % after 20 days against STEME,STEME; 125 g/ha a.s.,20%
same,Herbicidal action in % after 20 days against STEME,STEME; 250 g/ha a.s.,50%
same,Herbicidal action in % after 20 days against DIGSA,"DIGSA; 125 g/ha a.s., Use Example 5",90%
same,Herbicidal action in % after 21 days against DIGSA,DIGSA; 125 g/ha a.s.,90%
same,Herbicidal action in % after 20 days against DIGSA,"DIGSA; 125 g/ha a.s., Use Example 14",90%
same,Herbicidal action in % after 20 days against DIGSA,"DIGSA; 250 g/ha a.s., Use Example 5",100%
same,Herbicidal action in % after 21 days against DIGSA,DIGSA; 250 g/ha a.s.,100%
same,Herbicidal action in % after 21 days against PANDI,PANDI,95%
same,Herbicidal action in % after 20 days against LOLMU,"LOLMU [2]; 125 g/ha a.s., Use Example 10",0%
same,Herbicidal action in % after 21 days against LOLMU,"LOLMU [2]; 125 g/ha a.s., Use Example 11",0%
same,Herbicidal action in % after 20 days against LOLMU,"LOLMU [2]; 125 g/ha a.s., Use Example 13",0%
same,Herbicidal action in % after 20 days against LOLMU,"LOLMU [2]; 250 g/ha a.s., Use Example 10",45%
same,Herbicidal action in % after 20 days against LOLMU,"LOLMU [2]; 250 g/ha a.s., Use Example 13",45%
same,Herbicidal action in % after 20 days against LOLMU,"LOLMU [2]; 500 g/ha a.s., Use Example 1",70%
same,Herbicidal action in % after 20 days against MATIN,MATIN; 62.5 g/ha a.s.,0%
same,Herbicidal action in % after 20 days against MATIN,MATIN; 125 g/ha a.s.,30%
same,Herbicidal action in % after 20 days against MATIN,MATIN; 250 g/ha a.s.,90%
same,Herbicidal action in % after 20 days against ALOMY,ALOMY; 125 g/ha a.s.,40%
same,Herbicidal action in % after 20 days against ALOMY,ALOMY; 250 g/ha a.s.,70%
same,Herbicidal action in % after 20 days against SETVI,"SETVI; 62.5 g/ha a.s., Use Example 18",60%
same,Herbicidal action in % after 20 days against SETVI,"SETVI; 125 g/ha a.s., Use Example 17",70%
same,Herbicidal action in % after 20 days against SETVI,"SETVI; 125 g/ha a.s., Use Example 18",70%
same,Herbicidal action in % after 20 days against SETVI,"SETVI; 250 g/ha a.s., Use Example 17",80%
same,Herbicidal action in % after 20 days against PHACA,"PHACA; 250 g/ha a.s., Use Example 4",80%
same,Herbicidal action in % after 20 days against PHACA,"PHACA; 500 g/ha a.s., Use Example 1",80%
same,Herbicidal action in % after 20 days against AVEFA,AVEFA; 250 g/ha a.s.,20%
same,Herbicidal action in % after 20 days against AVEFA,AVEFA; 500 g/ha a.s.,40%

# From patent publication US20100190794A1, “Herbicidally Active Composition” (BASF SE, priority 2007, published 2010)
